In the kinase profiling compilation of Christmann-Franck et al. (2016):

Legend:
Experiment in all cases: KINOMEscan competition binding
Settings in all cases: compound 10.0 µM
TLK2 (human) = TLK2 (human) (UniProt Q86UE8)
MARK3 (human) = MARK3 (human) (UniProt P27448)
ULK2 (human) = ULK2 (human) (UniProt Q8IYT8)
STK33 (human) = STK33 (human) (UniProt Q9BYT3)
EPHA4 (human) = EPHA4 (human) (UniProt P54764)
PIK3C2G (human) = PIK3C2G (human) (UniProt O75747)
STK32A (human) = STK32A (human) (UniProt Q8WU08)
AKT2 (human) = AKT2 (human) (UniProt P31751)
CDK3 (human) = CDK3 (human) (UniProt Q00526)
PIK3CB (human) = PIK3CB (human) (UniProt P42338)
FGFR2 (human) = FGFR2 (human) (UniProt P21802)
MLTK (human) = MLTK (human) (UniProt Q9NYL2)
CLK3 (human) = CLK3 (human) (UniProt P49761)
SYK (human) = SYK (human) (UniProt P43405)
RPS6KB1 (human) = RPS6KB1 (human) (UniProt P23443)
CSNK1G2 (human) = CSNK1G2 (human) (UniProt P78368)
STK25 (human) = STK25 (human) (UniProt O00506)
PKN1 (human) = PKN1 (human) (UniProt Q16512)
ERBB4 (human) = ERBB4 (human) (UniProt Q15303)
PRKD2 (human) = PRKD2 (human) (UniProt Q9BZL6)
STK36 (human) = STK36 (human) (UniProt Q9NRP7)
PIP4K2B (human) = PIP4K2B (human) (UniProt P78356)
GRK7 (human) = GRK7 (human) (UniProt Q8WTQ7)
PRKCI (human) = PRKCI (human) (UniProt P41743)
CDK5 (human) = CDK5 (human) (UniProt Q00535)
PIK3CD (human) = PIK3CD (human) (UniProt O00329)
EPHA6 (human) = EPHA6 (human) (UniProt Q9UF33)
LTK (human) = LTK (human) (UniProt P29376)
STK38L (human) = STK38L (human) (UniProt Q9Y2H1)
RPS6KA6 KD1 (human) = RPS6KA6 KD1 (human) (UniProt Q9UK32)
MARK4 (human) = MARK4 (human) (UniProt Q96L34)
ROS1 (human) = ROS1 (human) (UniProt P08922)
TBK1 (human) = TBK1 (human) (UniProt Q9UHD2)
LATS2 (human) = LATS2 (human) (UniProt Q9NRM7)
CDC42BPB (human) = CDC42BPB (human) (UniProt Q9Y5S2)
ITK (human) = ITK (human) (UniProt Q08881)
GRK1 (human) = GRK1 (human) (UniProt Q15835)
PTK2B (human) = PTK2B (human) (UniProt Q14289)
MERTK (human) = MERTK (human) (UniProt Q12866)
PLK3 (human) = PLK3 (human) (UniProt Q9H4B4)
Chain of PLK3 (human) (Q9H4B4 whole entry, looked up): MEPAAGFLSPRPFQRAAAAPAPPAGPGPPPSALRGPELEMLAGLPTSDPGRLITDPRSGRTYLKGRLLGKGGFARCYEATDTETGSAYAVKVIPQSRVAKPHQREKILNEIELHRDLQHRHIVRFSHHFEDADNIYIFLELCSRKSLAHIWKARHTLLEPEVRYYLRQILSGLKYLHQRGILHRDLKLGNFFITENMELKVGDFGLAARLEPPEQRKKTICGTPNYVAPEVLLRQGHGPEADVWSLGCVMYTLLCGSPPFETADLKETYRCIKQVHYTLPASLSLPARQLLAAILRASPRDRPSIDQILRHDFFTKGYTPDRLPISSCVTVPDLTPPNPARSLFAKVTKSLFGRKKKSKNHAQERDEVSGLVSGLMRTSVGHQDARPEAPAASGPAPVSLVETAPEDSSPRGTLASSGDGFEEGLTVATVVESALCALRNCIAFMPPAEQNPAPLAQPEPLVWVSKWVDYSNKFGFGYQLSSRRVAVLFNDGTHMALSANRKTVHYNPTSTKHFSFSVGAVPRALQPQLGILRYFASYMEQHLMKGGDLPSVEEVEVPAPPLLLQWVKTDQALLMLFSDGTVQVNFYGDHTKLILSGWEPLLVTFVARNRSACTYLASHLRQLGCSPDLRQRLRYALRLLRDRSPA

Chain of CLK3 (human) (P49761 whole entry, looked up): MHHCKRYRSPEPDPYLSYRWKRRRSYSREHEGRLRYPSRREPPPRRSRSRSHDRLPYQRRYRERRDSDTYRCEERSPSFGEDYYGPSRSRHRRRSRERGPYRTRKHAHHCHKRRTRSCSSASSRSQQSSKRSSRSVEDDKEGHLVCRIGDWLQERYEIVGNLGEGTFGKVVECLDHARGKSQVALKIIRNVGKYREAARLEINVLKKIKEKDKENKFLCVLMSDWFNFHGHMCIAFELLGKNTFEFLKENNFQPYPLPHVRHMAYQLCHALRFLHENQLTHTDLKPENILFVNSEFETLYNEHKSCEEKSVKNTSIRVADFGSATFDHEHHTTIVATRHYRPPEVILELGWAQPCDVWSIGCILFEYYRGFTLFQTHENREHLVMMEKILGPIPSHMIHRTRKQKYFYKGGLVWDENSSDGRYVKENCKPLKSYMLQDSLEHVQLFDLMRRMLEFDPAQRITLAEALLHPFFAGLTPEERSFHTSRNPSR
Chain of TBK1 (human) (Q9UHD2 whole entry, looked up): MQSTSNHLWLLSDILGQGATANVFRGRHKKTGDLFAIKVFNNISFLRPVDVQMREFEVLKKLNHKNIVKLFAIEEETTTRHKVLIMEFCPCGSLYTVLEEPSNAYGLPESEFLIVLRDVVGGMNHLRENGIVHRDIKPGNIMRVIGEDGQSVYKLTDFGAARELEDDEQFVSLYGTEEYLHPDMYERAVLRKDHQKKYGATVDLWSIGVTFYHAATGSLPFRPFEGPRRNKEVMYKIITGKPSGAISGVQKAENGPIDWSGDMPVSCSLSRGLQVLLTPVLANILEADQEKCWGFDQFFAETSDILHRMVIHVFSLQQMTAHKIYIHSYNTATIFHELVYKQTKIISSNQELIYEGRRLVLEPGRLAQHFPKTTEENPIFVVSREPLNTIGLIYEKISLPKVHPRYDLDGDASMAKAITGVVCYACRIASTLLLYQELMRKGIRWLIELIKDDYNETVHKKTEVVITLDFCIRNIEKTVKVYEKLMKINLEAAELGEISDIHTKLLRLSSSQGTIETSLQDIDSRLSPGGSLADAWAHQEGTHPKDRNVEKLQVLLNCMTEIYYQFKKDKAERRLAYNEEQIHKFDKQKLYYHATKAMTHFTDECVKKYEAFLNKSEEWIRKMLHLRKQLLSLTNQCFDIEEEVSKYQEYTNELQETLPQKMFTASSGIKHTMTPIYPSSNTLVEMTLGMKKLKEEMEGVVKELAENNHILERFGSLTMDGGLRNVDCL
Chain of GRK1 (human) (Q15835 whole entry, looked up): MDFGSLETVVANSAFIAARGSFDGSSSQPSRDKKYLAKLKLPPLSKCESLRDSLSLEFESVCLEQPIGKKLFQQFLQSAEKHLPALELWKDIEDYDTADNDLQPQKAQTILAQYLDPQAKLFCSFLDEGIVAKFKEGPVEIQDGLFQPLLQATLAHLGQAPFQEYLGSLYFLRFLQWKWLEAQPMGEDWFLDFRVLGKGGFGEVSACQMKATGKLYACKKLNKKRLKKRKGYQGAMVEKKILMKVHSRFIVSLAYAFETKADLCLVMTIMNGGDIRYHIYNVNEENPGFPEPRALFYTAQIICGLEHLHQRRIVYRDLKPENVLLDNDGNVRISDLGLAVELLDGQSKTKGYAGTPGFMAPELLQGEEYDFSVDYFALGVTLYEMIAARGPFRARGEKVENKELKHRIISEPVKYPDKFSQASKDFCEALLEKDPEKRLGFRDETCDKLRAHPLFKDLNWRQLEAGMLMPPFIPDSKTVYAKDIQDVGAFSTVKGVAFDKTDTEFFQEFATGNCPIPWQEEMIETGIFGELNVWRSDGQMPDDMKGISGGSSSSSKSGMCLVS
Chain of CSNK1G2 (human) (P78368 whole entry, looked up): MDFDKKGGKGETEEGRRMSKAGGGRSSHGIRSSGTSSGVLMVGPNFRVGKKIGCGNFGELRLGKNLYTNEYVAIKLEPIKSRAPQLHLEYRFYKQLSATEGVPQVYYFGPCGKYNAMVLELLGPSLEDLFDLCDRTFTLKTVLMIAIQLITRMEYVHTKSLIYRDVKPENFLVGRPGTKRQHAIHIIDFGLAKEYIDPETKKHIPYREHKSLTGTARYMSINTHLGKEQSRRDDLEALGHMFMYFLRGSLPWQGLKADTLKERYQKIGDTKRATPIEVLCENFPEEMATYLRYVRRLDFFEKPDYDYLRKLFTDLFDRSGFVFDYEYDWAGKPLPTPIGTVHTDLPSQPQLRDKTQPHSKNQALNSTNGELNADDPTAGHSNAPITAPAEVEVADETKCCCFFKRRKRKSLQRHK
Chain of STK32A (human) (Q8WU08 whole entry, looked up): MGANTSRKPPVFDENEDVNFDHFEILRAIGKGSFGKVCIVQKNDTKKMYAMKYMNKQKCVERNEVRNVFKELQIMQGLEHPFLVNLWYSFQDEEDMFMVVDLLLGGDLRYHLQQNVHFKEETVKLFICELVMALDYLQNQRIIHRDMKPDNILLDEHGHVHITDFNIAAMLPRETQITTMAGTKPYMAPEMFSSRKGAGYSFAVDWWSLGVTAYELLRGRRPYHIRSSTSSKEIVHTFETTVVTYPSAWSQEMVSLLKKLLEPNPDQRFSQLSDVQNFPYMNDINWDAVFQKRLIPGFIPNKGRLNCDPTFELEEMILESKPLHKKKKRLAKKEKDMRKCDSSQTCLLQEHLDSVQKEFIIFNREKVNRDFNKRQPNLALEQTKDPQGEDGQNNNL
Chain of FGFR2 (human) (P21802 whole entry, looked up): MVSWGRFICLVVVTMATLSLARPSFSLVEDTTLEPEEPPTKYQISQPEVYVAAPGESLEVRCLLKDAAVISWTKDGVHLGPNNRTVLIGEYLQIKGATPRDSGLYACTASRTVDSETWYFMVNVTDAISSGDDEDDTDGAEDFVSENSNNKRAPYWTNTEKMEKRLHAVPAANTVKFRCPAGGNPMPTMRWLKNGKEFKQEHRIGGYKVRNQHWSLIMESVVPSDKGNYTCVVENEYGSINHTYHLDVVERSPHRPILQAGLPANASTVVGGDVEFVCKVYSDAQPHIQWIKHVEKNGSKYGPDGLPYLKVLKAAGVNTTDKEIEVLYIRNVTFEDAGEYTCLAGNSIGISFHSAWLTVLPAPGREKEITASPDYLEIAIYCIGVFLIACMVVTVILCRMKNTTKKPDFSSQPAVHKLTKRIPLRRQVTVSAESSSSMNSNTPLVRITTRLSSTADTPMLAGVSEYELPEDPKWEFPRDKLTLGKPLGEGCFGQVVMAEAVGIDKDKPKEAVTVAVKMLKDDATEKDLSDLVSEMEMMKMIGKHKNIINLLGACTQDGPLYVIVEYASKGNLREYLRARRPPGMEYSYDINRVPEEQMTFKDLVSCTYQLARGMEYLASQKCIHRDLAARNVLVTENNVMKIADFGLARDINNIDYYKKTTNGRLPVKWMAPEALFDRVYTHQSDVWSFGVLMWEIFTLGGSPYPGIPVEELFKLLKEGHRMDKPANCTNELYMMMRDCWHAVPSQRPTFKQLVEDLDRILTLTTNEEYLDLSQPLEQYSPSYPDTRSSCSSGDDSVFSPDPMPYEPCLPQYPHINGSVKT
Chain of EPHA4 (human) (P54764 whole entry, looked up): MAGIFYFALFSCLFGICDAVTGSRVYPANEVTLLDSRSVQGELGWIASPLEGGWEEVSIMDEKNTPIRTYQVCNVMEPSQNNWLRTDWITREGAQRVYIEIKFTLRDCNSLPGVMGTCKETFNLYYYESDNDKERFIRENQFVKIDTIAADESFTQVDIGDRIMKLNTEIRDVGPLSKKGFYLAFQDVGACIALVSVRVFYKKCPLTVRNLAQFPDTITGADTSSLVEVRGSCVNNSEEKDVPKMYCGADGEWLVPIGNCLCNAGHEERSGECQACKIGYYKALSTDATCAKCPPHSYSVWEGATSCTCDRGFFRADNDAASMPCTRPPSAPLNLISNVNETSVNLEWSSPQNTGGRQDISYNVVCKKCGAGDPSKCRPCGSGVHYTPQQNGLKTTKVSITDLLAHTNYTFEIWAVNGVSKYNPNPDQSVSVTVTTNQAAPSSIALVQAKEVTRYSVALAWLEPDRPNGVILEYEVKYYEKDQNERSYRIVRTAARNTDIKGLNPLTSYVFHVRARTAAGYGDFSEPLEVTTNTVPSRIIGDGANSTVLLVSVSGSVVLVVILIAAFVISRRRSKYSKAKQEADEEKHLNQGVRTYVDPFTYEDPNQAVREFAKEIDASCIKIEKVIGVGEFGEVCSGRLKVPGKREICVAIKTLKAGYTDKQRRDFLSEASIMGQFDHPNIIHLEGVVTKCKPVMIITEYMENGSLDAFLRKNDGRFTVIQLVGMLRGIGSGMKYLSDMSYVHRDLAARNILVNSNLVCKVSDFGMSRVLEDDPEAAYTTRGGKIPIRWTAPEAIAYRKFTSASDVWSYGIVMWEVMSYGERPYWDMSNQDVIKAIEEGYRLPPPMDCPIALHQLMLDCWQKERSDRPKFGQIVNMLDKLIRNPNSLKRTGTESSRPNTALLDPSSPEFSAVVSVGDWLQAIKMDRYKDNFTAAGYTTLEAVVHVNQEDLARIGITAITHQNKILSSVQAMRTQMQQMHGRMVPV

Structure (SMILES)	kinase still bound, per cent of control (TLK2 (human)) [%]	kinase still bound, per cent of control (MARK3 (human)) [%]	kinase still bound, per cent of control (ULK2 (human)) [%]	kinase still bound, per cent of control (STK33 (human)) [%]	kinase still bound, per cent of control (EPHA4 (human)) [%]	kinase still bound, per cent of control (PIK3C2G (human)) [%]	kinase still bound, per cent of control (STK32A (human)) [%]	kinase still bound, per cent of control (AKT2 (human)) [%]	kinase still bound, per cent of control (CDK3 (human)) [%]	kinase still bound, per cent of control (PIK3CB (human)) [%]	kinase still bound, per cent of control (FGFR2 (human)) [%]	kinase still bound, per cent of control (MLTK (human)) [%]	kinase still bound, per cent of control (CLK3 (human)) [%]	kinase still bound, per cent of control (SYK (human)) [%]	kinase still bound, per cent of control (RPS6KB1 (human)) [%]	kinase still bound, per cent of control (CSNK1G2 (human)) [%]	kinase still bound, per cent of control (STK25 (human)) [%]	kinase still bound, per cent of control (PKN1 (human)) [%]	kinase still bound, per cent of control (ERBB4 (human)) [%]	kinase still bound, per cent of control (PRKD2 (human)) [%]	further results
COc1cc2ncnc(-n3nc(-c4ccccn4)nc3N)c2cc1OC	40	100	3	6.4	34	8.2	64	42	82	5	76	4.5	3.6	24	2.6	1.1	33	100	59	65	kinase still bound, per cent of control (STK36 (human)): 7.4%; kinase still bound, per cent of control (PIP4K2B (human)): 44%; kinase still bound, per cent of control (GRK7 (human)): 11%; kinase still bound, per cent of control (PRKCI (human)): 55%; kinase still bound, per cent of control (CDK5 (human)): 100%; kinase still bound, per cent of control (PIK3CD (human)): 5%; kinase still bound, per cent of control (EPHA6 (human)): 23%; kinase still bound, per cent of control (LTK (human)): 24%; kinase still bound, per cent of control (STK38L (human)): 69%; kinase still bound, per cent of control (RPS6KA6 KD1 (human)): 20%; kinase still bound, per cent of control (MARK4 (human)): 75%; kinase still bound, per cent of control (ROS1 (human)): 25%; kinase still bound, per cent of control (TBK1 (human)): 24%; kinase still bound, per cent of control (LATS2 (human)): 11%; kinase still bound, per cent of control (CDC42BPB (human)): 100%; kinase still bound, per cent of control (ITK (human)): 100%; kinase still bound, per cent of control (GRK1 (human)): 41%; kinase still bound, per cent of control (PTK2B (human)): 75%; kinase still bound, per cent of control (MERTK (human)): 29%; kinase still bound, per cent of control (PLK3 (human)): 33%
CCN1CCN(C(=O)Cc2ccc(Nc3ncc(F)c(Nc4ccc(C(=O)Nc5ccccc5Cl)cc4)n3)cc2)CC1	33	80	77	35	83	39	100	95	92	83	25	2.9	23	33	39	58	35	56	53	100	kinase still bound, per cent of control (STK36 (human)): 2.1%; kinase still bound, per cent of control (PIP4K2B (human)): 1.6%; kinase still bound, per cent of control (GRK7 (human)): 71%; kinase still bound, per cent of control (PRKCI (human)): 77%; kinase still bound, per cent of control (CDK5 (human)): 79%; kinase still bound, per cent of control (PIK3CD (human)): 41%; kinase still bound, per cent of control (EPHA6 (human)): 46%; kinase still bound, per cent of control (LTK (human)): 32%; kinase still bound, per cent of control (STK38L (human)): 60%; kinase still bound, per cent of control (RPS6KA6 KD1 (human)): 37%; kinase still bound, per cent of control (MARK4 (human)): 17%; kinase still bound, per cent of control (ROS1 (human)): 34%; kinase still bound, per cent of control (TBK1 (human)): 5.6%; kinase still bound, per cent of control (LATS2 (human)): 100%; kinase still bound, per cent of control (CDC42BPB (human)): 100%; kinase still bound, per cent of control (ITK (human)): 52%; kinase still bound, per cent of control (GRK1 (human)): 100%; kinase still bound, per cent of control (PTK2B (human)): 33%; kinase still bound, per cent of control (MERTK (human)): 2%; kinase still bound, per cent of control (PLK3 (human)): 82%
O=C1NC(=O)/C(=C/c2ccc3nccc(-c4ccncc4)c3c2)S1	87	100	65	0.55	96	3.8	83	100	87	7.1	100	16	0.05	62	53	0.05	75	56	65	90	kinase still bound, per cent of control (STK36 (human)): 89%; kinase still bound, per cent of control (PIP4K2B (human)): 4%; kinase still bound, per cent of control (GRK7 (human)): 5.4%; kinase still bound, per cent of control (PRKCI (human)): 67%; kinase still bound, per cent of control (CDK5 (human)): 82%; kinase still bound, per cent of control (PIK3CD (human)): 4.8%; kinase still bound, per cent of control (EPHA6 (human)): 83%; kinase still bound, per cent of control (LTK (human)): 22%; kinase still bound, per cent of control (STK38L (human)): 100%; kinase still bound, per cent of control (RPS6KA6 KD1 (human)): 45%; kinase still bound, per cent of control (MARK4 (human)): 89%; kinase still bound, per cent of control (ROS1 (human)): 78%; kinase still bound, per cent of control (TBK1 (human)): 29%; kinase still bound, per cent of control (LATS2 (human)): 100%; kinase still bound, per cent of control (CDC42BPB (human)): 66%; kinase still bound, per cent of control (ITK (human)): 81%; kinase still bound, per cent of control (GRK1 (human)): 22%; kinase still bound, per cent of control (PTK2B (human)): 86%; kinase still bound, per cent of control (MERTK (human)): 14%; kinase still bound, per cent of control (PLK3 (human)): 49%
